Results reported in ChEMBL document CHEMBL4507300 (2021).

Assays:
[1] = molecular target: Dual specificity mitogen-activated protein kinase kinase 2 (Homo sapiens) (UniProt P36507); settings: Compound concentration 1000.0 nM
[2] = molecular target: Mitogen-activated protein kinase kinase kinase 1 (Homo sapiens) (UniProt Q13233); settings: Compound concentration 1000.0 nM
[3] = molecular target: Delta-type opioid receptor (Homo sapiens) (UniProt P41143); settings: Compound concentration 10.0 uM
[4] = molecular target: Serine/threonine-protein kinase ICK (Homo sapiens) (UniProt Q9UPZ9); settings: Compound concentration 1000.0 nM
[5] = test system: Epidermal growth factor receptor (Homo sapiens), P00533 [UNDEFINED MUTATION]; settings: Compound concentration 1000.0 nM
[6] = molecular target: Eukaryotic translation initiation factor 2-alpha kinase 1 (Homo sapiens) (UniProt Q9BQI3); settings: Compound concentration 1000.0 nM
[7] = molecular target: Tyrosine-protein kinase Srms (Homo sapiens) (UniProt Q9H3Y6); settings: Compound concentration 1000.0 nM
[8] = molecular target: Dual specificity mitogen-activated protein kinase kinase 5 (Homo sapiens) (UniProt Q13163); settings: Compound concentration 1000.0 nM
[9] = molecular target: Casein kinase I isoform delta (Homo sapiens) (UniProt P48730); settings: Compound concentration 1000.0 nM
[10] = molecular target: Mitogen-activated protein kinase 12 (Homo sapiens) (UniProt P53778); settings: Compound concentration 1000.0 nM
[11] = molecular target: Serine/threonine-protein kinase DCLK1 (Homo sapiens) (UniProt O15075); settings: Compound concentration 1000.0 nM
[12] = molecular target: Myosin light chain kinase, smooth muscle (Homo sapiens) (UniProt Q15746); settings: Compound concentration 1000.0 nM
[13] = molecular target: MAP/microtubule affinity-regulating kinase 4 (Homo sapiens) (UniProt Q96L34); settings: Compound concentration 1000.0 nM
[14] = test system: Tyrosine-protein kinase ABL1 (Homo sapiens), P00519 [H396P]; settings: Compound concentration 1000.0 nM
[15] = molecular target: Mitogen-activated protein kinase kinase kinase kinase 4 (Homo sapiens) (UniProt O95819); settings: Compound concentration 1000.0 nM
[16] = molecular target: D(3) dopamine receptor (Homo sapiens) (UniProt P35462); settings: Compound concentration 10.0 uM
[17] = molecular target: MAP kinase-activated protein kinase 2 (Homo sapiens) (UniProt P49137); settings: Compound concentration 1000.0 nM
[18] = molecular target: Calcium/calmodulin-dependent protein kinase type 1 (Homo sapiens) (UniProt Q14012); settings: Compound concentration 1000.0 nM
[19] = molecular target: Mitogen-activated protein kinase 1 (Homo sapiens) (UniProt P28482); settings: Compound concentration 1000.0 nM
[20] = molecular target: Cyclin-dependent kinase 5 (Homo sapiens) (UniProt Q00535); settings: Compound concentration 1000.0 nM
[21] = molecular target: TGF-beta receptor type-2 (Homo sapiens) (UniProt P37173); settings: Compound concentration 1000.0 nM
[22] = molecular target: Calcium/calmodulin-dependent protein kinase type II subunit beta (Homo sapiens) (UniProt Q13554); settings: Compound concentration 1000.0 nM
[23] = molecular target: Tyrosine-protein kinase Tec (Homo sapiens) (UniProt P42680); settings: Compound concentration 1000.0 nM
[24] = molecular target: Mitogen-activated protein kinase kinase kinase 10 (Homo sapiens) (UniProt Q02779); settings: Compound concentration 1000.0 nM
[25] = test system: Phosphatidylinositol 4,5-bisphosphate 3-kinase catalytic subunit alpha isoform (Homo sapiens), P42336 [C420R]; settings: Compound concentration 1000.0 nM
[26] = molecular target: Phosphatidylinositol 3-kinase catalytic subunit type 3 (Homo sapiens) (UniProt Q8NEB9); settings: Compound concentration 1000.0 nM
[27] = molecular target: Wee1-like protein kinase 2 (Homo sapiens) (UniProt P0C1S8); settings: Compound concentration 1000.0 nM
[28] = molecular target: Serine/threonine-protein kinase WNK1 (Homo sapiens) (UniProt Q9H4A3); settings: Compound concentration 1000.0 nM
[29] = molecular target: Ribosomal protein S6 kinase alpha-6 (Homo sapiens) (UniProt Q9UK32); settings: Compound concentration 1000.0 nM
[30] = test system: Epidermal growth factor receptor (Homo sapiens), P00533 [G719C]; settings: Compound concentration 1000.0 nM
[31] = molecular target: Phosphatidylinositol 5-phosphate 4-kinase type-2 beta (Homo sapiens) (UniProt P78356); settings: Compound concentration 1000.0 nM
[32] = molecular target: Alpha-1D adrenergic receptor (Homo sapiens) (UniProt P25100); settings: Compound concentration 10.0 uM
[33] = molecular target: Serine/threonine-protein kinase LATS1 (Homo sapiens) (UniProt O95835); settings: Compound concentration 1000.0 nM
[34] = molecular target: Testis-specific serine/threonine-protein kinase 1 (Homo sapiens) (UniProt Q9BXA7); settings: Compound concentration 1000.0 nM
[35] = molecular target: Serine/threonine-protein kinase Nek9 (Homo sapiens) (UniProt Q8TD19); settings: Compound concentration 1000.0 nM
[36] = molecular target: RAC-gamma serine/threonine-protein kinase (Homo sapiens) (UniProt Q9Y243); settings: Compound concentration 1000.0 nM
[37] = test system: Hepatocyte growth factor receptor (Homo sapiens), P08581 [M1250T]; settings: Compound concentration 1000.0 nM
[38] = molecular target: Mitogen-activated protein kinase 9 (Homo sapiens) (UniProt P45984); settings: Compound concentration 1000.0 nM
[39] = molecular target: Serine/threonine-protein kinase NLK (Homo sapiens) (UniProt Q9UBE8); settings: Compound concentration 1000.0 nM
[40] = molecular target: Alpha-2A adrenergic receptor (Homo sapiens) (UniProt P08913); settings: Compound concentration 10.0 uM
[41] = molecular target: Serine/threonine-protein kinase 32A (Homo sapiens) (UniProt Q8WU08); settings: Compound concentration 1000.0 nM
[42] = test system: Tyrosine-protein kinase ABL1 (Homo sapiens), P00519 [T315I]; settings: Compound concentration 1000.0 nM
[43] = molecular target: Homeodomain-interacting protein kinase 4 (Homo sapiens) (UniProt Q8NE63); settings: Compound concentration 1000.0 nM
[44] = test system: Receptor-type tyrosine-protein kinase FLT3 (Homo sapiens), P36888 [D835Y]; settings: Compound concentration 1000.0 nM
[45] = molecular target: Phosphatidylinositol 4-kinase beta (Homo sapiens) (UniProt Q9UBF8); settings: Compound concentration 1000.0 nM

Chain of Mitogen-activated protein kinase kinase kinase 10 (Homo sapiens) (Q02779 whole entry, looked up, canonical isoform): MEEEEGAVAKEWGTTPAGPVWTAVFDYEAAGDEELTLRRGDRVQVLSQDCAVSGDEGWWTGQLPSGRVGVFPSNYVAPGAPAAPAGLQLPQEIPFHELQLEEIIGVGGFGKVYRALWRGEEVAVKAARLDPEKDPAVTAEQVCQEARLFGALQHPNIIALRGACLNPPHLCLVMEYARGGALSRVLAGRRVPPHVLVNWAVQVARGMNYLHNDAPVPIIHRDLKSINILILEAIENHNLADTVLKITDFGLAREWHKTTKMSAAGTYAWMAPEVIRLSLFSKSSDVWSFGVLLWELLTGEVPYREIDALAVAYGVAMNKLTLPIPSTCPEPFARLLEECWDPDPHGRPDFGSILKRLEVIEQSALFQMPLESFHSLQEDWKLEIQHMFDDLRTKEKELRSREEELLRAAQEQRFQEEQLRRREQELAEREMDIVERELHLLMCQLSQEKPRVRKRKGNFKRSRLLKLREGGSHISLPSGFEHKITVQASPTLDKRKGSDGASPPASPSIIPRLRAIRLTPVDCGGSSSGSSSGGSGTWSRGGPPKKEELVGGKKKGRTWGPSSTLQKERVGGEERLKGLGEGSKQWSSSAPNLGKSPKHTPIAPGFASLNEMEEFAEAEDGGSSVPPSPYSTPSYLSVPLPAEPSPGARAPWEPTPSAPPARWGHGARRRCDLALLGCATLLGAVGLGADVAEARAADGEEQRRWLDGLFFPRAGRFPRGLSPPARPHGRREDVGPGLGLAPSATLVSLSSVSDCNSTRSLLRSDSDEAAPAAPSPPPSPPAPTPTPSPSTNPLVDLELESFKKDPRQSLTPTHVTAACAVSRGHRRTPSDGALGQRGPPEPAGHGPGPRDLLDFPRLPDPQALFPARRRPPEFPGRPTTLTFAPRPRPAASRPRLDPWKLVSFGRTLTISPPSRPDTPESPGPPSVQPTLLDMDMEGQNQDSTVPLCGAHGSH
Chain of Alpha-1D adrenergic receptor (Homo sapiens) (P25100 whole entry): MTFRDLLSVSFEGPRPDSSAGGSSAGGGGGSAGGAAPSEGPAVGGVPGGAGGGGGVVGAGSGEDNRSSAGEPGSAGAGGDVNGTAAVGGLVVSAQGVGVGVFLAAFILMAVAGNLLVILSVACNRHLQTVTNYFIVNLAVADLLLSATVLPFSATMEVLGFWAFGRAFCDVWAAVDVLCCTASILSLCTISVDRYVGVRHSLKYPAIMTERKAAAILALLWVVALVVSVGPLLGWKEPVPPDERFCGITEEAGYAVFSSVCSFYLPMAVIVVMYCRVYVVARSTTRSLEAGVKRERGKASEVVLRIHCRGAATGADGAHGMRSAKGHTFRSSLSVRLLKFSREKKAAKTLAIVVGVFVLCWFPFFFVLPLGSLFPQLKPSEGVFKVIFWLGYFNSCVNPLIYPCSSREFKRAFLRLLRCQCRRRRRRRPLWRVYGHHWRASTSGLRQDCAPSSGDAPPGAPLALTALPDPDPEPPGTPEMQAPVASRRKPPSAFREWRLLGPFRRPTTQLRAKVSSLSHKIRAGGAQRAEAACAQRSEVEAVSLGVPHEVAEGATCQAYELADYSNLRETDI
Chain of RAC-gamma serine/threonine-protein kinase (Homo sapiens) (Q9Y243 whole entry): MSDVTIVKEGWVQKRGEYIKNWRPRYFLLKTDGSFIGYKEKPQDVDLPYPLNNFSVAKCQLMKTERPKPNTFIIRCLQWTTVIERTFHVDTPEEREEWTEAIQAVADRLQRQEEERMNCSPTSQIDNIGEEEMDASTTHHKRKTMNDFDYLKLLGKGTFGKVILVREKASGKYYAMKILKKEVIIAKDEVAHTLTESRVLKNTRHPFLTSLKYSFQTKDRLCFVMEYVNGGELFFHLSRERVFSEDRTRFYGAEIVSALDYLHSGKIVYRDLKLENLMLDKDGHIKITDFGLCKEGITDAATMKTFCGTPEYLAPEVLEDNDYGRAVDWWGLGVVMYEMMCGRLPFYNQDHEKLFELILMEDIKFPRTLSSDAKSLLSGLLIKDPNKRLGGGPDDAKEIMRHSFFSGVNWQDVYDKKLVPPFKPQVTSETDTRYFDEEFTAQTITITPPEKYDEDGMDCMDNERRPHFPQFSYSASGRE
Chain of Phosphatidylinositol 5-phosphate 4-kinase type-2 beta (Homo sapiens) (P78356 whole entry): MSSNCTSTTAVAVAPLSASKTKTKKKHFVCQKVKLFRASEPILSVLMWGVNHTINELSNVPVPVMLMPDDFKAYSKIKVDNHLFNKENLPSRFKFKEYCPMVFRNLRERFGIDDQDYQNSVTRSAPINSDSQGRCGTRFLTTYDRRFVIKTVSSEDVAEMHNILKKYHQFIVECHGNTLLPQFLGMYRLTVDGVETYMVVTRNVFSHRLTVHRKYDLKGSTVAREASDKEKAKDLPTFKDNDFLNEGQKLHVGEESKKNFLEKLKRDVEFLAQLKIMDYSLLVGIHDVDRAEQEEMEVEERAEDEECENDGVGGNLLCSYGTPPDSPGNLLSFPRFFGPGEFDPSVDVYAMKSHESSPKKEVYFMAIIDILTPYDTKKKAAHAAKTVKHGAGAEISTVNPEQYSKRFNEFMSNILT
Chain of Mitogen-activated protein kinase 9 (Homo sapiens) (P45984 whole entry, looked up): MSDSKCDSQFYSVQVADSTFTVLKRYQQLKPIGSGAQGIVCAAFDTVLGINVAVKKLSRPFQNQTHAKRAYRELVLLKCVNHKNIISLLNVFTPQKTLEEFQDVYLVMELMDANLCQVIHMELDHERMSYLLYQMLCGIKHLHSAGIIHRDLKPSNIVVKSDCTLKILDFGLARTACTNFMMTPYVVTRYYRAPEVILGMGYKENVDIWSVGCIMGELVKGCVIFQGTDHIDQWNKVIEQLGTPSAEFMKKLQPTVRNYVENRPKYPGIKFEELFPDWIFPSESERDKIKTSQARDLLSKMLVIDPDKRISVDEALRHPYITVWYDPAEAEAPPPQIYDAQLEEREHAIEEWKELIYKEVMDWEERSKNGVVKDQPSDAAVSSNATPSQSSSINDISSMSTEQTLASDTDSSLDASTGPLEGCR
Chain of Cyclin-dependent kinase 5 (Homo sapiens) (Q00535 whole entry, looked up): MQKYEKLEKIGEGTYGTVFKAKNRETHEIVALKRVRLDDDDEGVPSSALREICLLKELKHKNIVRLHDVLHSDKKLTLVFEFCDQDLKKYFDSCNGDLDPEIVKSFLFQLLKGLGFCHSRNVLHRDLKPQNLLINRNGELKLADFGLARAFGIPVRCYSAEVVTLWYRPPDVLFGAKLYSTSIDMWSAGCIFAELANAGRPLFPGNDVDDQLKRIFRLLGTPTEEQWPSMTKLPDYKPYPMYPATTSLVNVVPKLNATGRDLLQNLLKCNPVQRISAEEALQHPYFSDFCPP
Chain of Wee1-like protein kinase 2 (Homo sapiens) (P0C1S8 whole entry, looked up): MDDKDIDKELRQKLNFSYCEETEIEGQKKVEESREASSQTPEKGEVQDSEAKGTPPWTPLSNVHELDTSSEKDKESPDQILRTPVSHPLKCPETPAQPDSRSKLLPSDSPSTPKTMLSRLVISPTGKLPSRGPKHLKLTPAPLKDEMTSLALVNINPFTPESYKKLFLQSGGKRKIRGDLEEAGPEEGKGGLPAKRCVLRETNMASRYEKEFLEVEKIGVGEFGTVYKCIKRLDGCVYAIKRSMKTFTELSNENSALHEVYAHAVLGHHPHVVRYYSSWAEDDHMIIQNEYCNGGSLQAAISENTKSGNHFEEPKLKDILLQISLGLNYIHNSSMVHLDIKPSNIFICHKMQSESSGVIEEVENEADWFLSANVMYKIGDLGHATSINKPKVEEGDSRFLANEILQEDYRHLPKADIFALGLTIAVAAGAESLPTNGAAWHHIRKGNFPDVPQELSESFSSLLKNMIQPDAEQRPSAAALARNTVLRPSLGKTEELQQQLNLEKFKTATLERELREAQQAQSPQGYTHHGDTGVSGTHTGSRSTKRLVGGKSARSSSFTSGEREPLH
Chain of Testis-specific serine/threonine-protein kinase 1 (Homo sapiens) (Q9BXA7 whole entry): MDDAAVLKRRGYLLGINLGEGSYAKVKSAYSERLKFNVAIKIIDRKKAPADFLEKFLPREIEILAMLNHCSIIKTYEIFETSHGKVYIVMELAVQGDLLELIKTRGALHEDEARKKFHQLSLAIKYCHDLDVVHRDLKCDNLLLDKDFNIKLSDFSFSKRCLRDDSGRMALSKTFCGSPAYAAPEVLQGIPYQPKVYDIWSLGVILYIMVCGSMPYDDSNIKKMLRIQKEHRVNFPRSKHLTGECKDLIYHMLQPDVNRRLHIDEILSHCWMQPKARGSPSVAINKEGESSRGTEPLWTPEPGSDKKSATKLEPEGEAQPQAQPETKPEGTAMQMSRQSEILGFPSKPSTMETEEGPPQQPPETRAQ
Chain of Serine/threonine-protein kinase DCLK1 (Homo sapiens) (O15075 whole entry): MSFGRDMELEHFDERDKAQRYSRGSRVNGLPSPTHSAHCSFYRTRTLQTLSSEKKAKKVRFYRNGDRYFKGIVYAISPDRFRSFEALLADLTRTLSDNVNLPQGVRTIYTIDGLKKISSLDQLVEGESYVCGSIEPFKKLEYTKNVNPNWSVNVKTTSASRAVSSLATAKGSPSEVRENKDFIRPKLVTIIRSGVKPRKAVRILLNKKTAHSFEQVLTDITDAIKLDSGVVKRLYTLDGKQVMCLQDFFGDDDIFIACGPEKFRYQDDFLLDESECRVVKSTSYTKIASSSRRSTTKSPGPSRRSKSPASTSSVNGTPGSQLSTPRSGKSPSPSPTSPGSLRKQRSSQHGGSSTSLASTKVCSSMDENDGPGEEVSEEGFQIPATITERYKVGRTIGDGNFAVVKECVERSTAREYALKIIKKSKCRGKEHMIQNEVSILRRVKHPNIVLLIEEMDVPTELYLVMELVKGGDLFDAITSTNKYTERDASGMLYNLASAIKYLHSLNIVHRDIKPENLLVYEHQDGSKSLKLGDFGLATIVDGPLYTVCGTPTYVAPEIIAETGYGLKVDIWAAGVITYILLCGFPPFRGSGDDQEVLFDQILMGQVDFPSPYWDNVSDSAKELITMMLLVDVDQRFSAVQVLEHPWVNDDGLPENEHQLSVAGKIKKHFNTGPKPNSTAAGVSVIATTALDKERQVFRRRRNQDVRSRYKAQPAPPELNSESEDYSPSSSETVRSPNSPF

COc1cccc(CNC(=O)c2nc3scc(COCc4ccc(C(=O)O)cc4)c3c(=O)[nH]2)c1 [T-26c]
inactive: residual activity [1] 75.1% | residual activity [2] 63.1% | inhibition [3] -5.04% | residual activity [4] 66.1% | residual activity [5] 66.1% | residual activity [6] 88% | residual activity [7] 78.3% | residual activity [8] 100% | residual activity [9] 100% | residual activity [10] 92.1% | residual activity [11] 60.4% | residual activity [12] 100% | residual activity [13] 89.2% | residual activity [14] 86.4% | residual activity [15] 92.3% | inhibition [16] 10.5% | residual activity [17] 64.3% | residual activity [18] 88.2% | residual activity [19] 100% | residual activity [20] 95.7% | residual activity [21] 97% | residual activity [22] 96.8% | residual activity [23] 86% | residual activity [24] 100% | residual activity [25] 100% | residual activity [26] 58.6% | residual activity [27] 96.9% | residual activity [28] 76.7% | residual activity [29] 100% | residual activity [30] 91.4% | residual activity [31] 100% | inhibition [32] -5.4% | residual activity [33] 100% | residual activity [34] 88.2% | residual activity [35] 98.2% | residual activity [36] 84.8% | residual activity [37] 98% | residual activity [38] 97.1% | residual activity [39] 80.3% | inhibition [40] 17.2% | residual activity [41] 100% | residual activity [42] 92% | residual activity [43] 94.3% | residual activity [44] 94.3% | residual activity [45] 59.9%
